Experimental data reported in PMC9195046, “Filament organization of the bacterial actin MreB is dependent on the nucleotide state” (The Journal of Cell Biology, 2022).

What was measured:
ScMreB5 [1] = target: T1, ScMreB5 (Spiroplasma citri, UniProt Q8VQG1); assay: X-ray crystal structure, […] Å; conditions: nucleotide-binding pocket; Mg2+ and K+ bound; 2 mM ADP, 2 mM MgCl2; ADP also co-purifies (HPLC)
T1 construct: gene mreB5; monomer about 38 kD, forms filaments
T1 sequence (Q8VQG1 1-352): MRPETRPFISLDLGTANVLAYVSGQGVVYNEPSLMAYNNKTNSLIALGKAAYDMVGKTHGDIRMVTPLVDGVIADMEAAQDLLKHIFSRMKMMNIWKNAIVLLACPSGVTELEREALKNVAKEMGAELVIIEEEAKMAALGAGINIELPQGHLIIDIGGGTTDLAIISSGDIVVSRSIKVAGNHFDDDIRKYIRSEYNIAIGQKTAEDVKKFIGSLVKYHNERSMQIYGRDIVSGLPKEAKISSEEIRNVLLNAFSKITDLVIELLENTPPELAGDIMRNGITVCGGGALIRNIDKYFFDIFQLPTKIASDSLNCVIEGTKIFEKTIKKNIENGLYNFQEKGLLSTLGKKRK

ScMreB5 [2] = target: T1, ScMreB5; assay: thermal shift (SYPRO Orange); assay type: binding; conditions: 2.6 µM protein, protein purified with ADP and MgCl2 added

| SMILES | X-ray crystal structure, 2.3 Å (ScMreB5 [1]) | Tm (ScMreB5 [2]; 1 mM ADP) | Tm (ScMreB5 [2]; 1 mM ATP) |
| --- | --- | --- | --- |
| Nc1ncnc2c1ncn2[C@@H]1O[C@H](COP(=O)(O)OP(=O)(O)O)[C@@H](O)[C@H]1O [ADP] | ScMreB5 also crystallized in the presence of ADP (PDB accession no. 7BVZ) | Thermal shift assays showed increased stability in the KCl buffer and upon addition of excess ADP |  |
| Nc1ncnc2c1ncn2[C@@H]1O[C@H](COP(=O)(O)OP(=O)(O)OP(=O)(O)O)[C@@H](O)[C@H]1O [ATP] |  |  | increased stability in the KCl buffer and upon addition of excess ADP or ATP |
